Molecular target: human PDE10A2 (Homo sapiens (Human), UniProt Q9Y233)
Experiment: PDE10 fluorescence polarization (IMAP FP) inhibition assay
Assay type: biochemical
Details: human PDE10A2 from transfected AD293 cell lysate; FAM-labeled cAMP 50 nM; room temperature; read-out: PDE10A Ki
Experimental: The activity of the compounds in accordance with the present invention as PDE10 inhibitors may be readily determined without undue experimentation using a fluorescence polarization (FP) methodology that is well known in the art (Huang, W., et al., J. Biomol Screen, 2002, 7: 215).
In a typical experiment the PDE10 inhibitory activity of the compounds of the present invention was determined in accordance with the following experimental method. PDE10A2 was amplified from human fetal brain cDNA (Clontech, Mountain View, Calif.) using a forward primer corresponding to nucleotides 56-77 of human PDE10A2 (Accession No. AF127480, Genbank Identifier 4894716), containing a Kozak consensus sequence, and a reverse primer corresponding to nucleotides 2406-2413 of human PDE10A2 (Accession No. AF127480, Genbank Identifier 4894716). Amplification with Easy-A polymerase (Stratagene, La Jolla, Calif.) was 95° C. for 2 minutes followed by thirty three cycles of 95° C. for 40 seconds, 55° C. for 30 seconds, and 72° C. for 2 minutes 48 seconds. Final extension was 72° C. for 7 minutes. The PCR product was TA cloned into pcDNA3.2-TOPO (Invitrogen, Carlsbad, Calif.) according to standard protocol. AD293 cells with 70-80% confluency were transiently transfected with human PDE10A2/pcDNA3.2-TOPO using Lipofectamine 2000 according to manufacturer specifications (Invitrogen, Carlsbad, Calif.). Cells were harvested 48 hours post-transfection and lysed by sonication (setting 3, 10×5 sec pulses) in a buffer containing 20 mM HEPES, 1 mM EDTA and protease inhibitor cocktail (Roche). Lysate was collected by centrifugation at 75,000×g for 20 minutes. Supernatant containing the cytoplasmic fraction was used for evaluation of PDE10A2 activity. The fluorescence polarization assay for cyclic nucleotide phosphodiesterases was performed using an IMAP® FP kit supplied by Molecular Devices, Sunnyvale, Calif. (product #R8139). IMAP® technology has been applied previously to phosphodiesterase assays (Huang, W., et al., J. Biomol Screen, 2002, 7: 215). Assays were performed at room temperature in 384-well microtiter plates with an incubation volume of 20.2 μL. Solutions of test compounds were prepared in DMSO and serially diluted with DMSO to yield 8 μL of each of 10 solutions differing by 3-fold in concentration, at 32 serial dilutions per plate. 100% inhibition is determined using a known PDE10 inhibitor, which can be any compound that is present at 5,000 times its Ki value in the assay described as follows, such as papaverine (see Siuciak, et al. Neuropharmacology (2006) 51:386-396; Becker, et al. Behav Brain Res (2008) 186(2):155-60; Threlfell, et al., J Pharmacol Exp Ther (2009) 328(3):785-795), 2-[4-[pyridin-4-yl-1-(2,2,2-trifluoroethyl)-1H-pyrazol-3-yl]phenoxymethyl]quinoline succinic acid or 2-[4-(1-methyl-4-pyridin-4-yl-1H-pyrazol-3-yl)-phenoxymethyl]quinoline succinic acid (see Schmidt, et al. J Pharmacol Exp Ther (2008) 325:681-690; Threlfell, et al., J Pharmacol Exp Ther (2009) 328(3): 785-795). 0% of inhibition is determined by using DMSO (1% final concentrations). A Labcyte Echo 555 (Labcyte, Sunnyvale, Calif.) is used to dispense 200 nL from each well of the titration plate to the 384 well assay plate. A solution of enzyme (1/7000 dilution from aliquots; sufficient to produce 20% substrate conversion) and a separate solution of FAM-labeled cAMP PDE from Molecular Devices (product #R7506), at a final concentration of 50 nM are made in the assay buffer (10 mM Tris HCl, pH 7.2, 10 mM MgCl2, 0.05% NaN3 0.01% Tween-20, and 1 mM DTT). The enzyme is added to the assay plates by the addition of 10 μL of enzyme solution to each well, shaken to mix and incubated at room temperature for 60 minutes. The substrate is then added to the assay plates by the addition of 10 uL of substrate solution to each well, shaken to mix, and incubated at room temperature for 60 minutes. […]

Sequence of human PDE10A2 (Q9Y233 267-1055): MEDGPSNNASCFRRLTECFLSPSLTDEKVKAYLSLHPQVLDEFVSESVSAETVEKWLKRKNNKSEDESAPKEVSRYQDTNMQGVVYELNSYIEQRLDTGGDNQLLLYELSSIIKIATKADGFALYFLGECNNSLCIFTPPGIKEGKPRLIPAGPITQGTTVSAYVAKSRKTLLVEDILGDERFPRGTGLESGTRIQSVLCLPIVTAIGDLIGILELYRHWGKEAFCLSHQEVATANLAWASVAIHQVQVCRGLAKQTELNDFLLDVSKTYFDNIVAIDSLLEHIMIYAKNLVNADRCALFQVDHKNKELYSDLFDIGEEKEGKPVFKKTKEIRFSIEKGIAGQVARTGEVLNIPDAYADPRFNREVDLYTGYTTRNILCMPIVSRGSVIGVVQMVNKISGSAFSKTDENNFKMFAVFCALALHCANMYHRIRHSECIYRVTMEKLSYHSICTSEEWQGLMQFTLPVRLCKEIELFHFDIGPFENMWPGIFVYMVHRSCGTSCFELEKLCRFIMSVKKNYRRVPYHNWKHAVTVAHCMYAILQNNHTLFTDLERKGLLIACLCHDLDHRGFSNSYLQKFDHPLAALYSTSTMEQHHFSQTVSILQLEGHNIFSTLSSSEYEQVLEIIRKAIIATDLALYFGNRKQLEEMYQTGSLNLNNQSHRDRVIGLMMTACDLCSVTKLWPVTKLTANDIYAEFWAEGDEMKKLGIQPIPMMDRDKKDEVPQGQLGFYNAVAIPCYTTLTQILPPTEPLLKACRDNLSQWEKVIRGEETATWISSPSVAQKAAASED

SMILES | Ki [nM]
Cc1ncc(-c2cnn(C)c2)c(OC[C@H]2C[C@@H]2c2ccn(C)n2)n1 [1-54, 2-methyl-5-(1-methyl-1H-pyrazol-4-yl)-4-{[(1S,2S)-2-(1-methyl-1H-pyrazol-3-yl)cyclopropyl]methoxy}-pyrimidine] | 3.2
Cn1cc(-c2cc3ccncc3nc2OC[C@H]2C[C@@H]2c2ccc3ncccc3n2)cn1 [1-42, 2-[(1S,2S)-2-({[3-(1-methyl-1H-pyrazol-4-yl)-1,7-naphthyridin-2-yl]oxy}methyl)cyclo-propyl]-1,5-naphthyridine] | 0.04
COc1ccc([C@H]2C[C@@H]2COc2ncc(C)cc2-c2cnn3c2CCC3)nc1 [1-39, 3-(2-{[(1S,2S)-2-(5-methoxypyridin-2-yl)cyclopropyl]methoxy}-5-methylpyridin-3-yl)-5,6-dihydro-4H-pyrrolo[1,2-b]pyrazole] | 0.34
COc1ccc([C@H]2C[C@@H]2COc2nc(C)ncc2-c2csc(C)n2)nc1 [1-57, 4-{[(1S,2S)-2-(5-methoxypyridin-2-yl)cyclopropyl]methoxy}-2-methyl-5-(2-methyl-1,3-thiazol-4-yl)pyrimidine] | 0.78
COc1ccc([C@H]2C[C@@H]2COc2nc(C)ncc2-c2ccc(C)nc2)nc1 [1-73, 4-{[(1S,2S)-2-(5-methoxypyridin-2-yl)cyclopropyl]methoxy}-2-methyl-5-(6-methylpyridin-3-yl)pyrimidine] | 0.8
COc1ccc([C@H]2C[C@@H]2COc2nc(C)ncc2C2=CCC(O)CC2)nc1 (stereo partly drawn) [1-31, 4-(4-{[(1S,2S)-2-(5-methoxypyridin-2-yl)cyclopropyl]methoxy}-2-methylpyrimidin-5-yl)cyclohex-3-en-1-ol] | 0.15
COc1ccc([C@H]2C[C@@H]2COc2nc(C)ncc2-c2nnc(C3CC3)s2)nc1 [1-55, 5-(5-cyclopropyl-1,3,4-thiadiazol-2-yl)-4-{[(1S,2S)-2-(5-methoxypyridin-2-yl)cyclopropyl]methoxy}-2-methylpyrimidine] | 4.2
COc1ccc([C@H]2C[C@@H]2COc2nc(C)c(C)nc2-c2cncc(OC)c2)nc1 [1-36, 2-(5-methoxypyridin-3-yl)-3-{[(1S,2S)-2-(5-methoxypyridin-2-yl)cyclopropyl]methoxy}-5,6-dimethylpyrazine] | 0.22
Cc1ncc(-c2c(C)nn(C)c2C)c(OC[C@H]2C[C@@H]2c2ccc3ccccc3n2)n1 [1-46, 2-[(1S,2S)-2-({[2-methyl-5-(1,3,5-trimethyl-1H-pyrazol-4-yl)pyrimidin-4-yl]oxy}methyl)cyclopropyl]quinoline] | 0.002

More lines, now with the values ahead:

Ki [nM] | SMILES
0.23 | COc1ccc([C@H]2C[C@@H]2COc2nc3cccnc3cc2-c2cnn(CCO)c2)nc1 [LL3, 2-[4-(2-{[(1S,2S)-2-(5-methoxypyridin-2-yl)cyclopropyl]methoxy}-1,5-naphthyridin-3-yl)-1H-pyrazol-1-yl]ethanol]
0.25 | COc1ccc([C@H]2C[C@@H]2COc2nc(C)ncc2-c2cnn(C)c2)nc1 [MM4, 4-{[(1S,2S)-2-(5-methoxypyridin-2-yl)cyclopropyl]methoxy}-2-methyl-5-(1-methyl-1H-pyrazol-4-yl)pyrimidine]
0.6 | COc1ccc([C@H]2C[C@@H]2COc2nc(C)ncc2/C=C/c2cccnc2)nc1 [TT1, 4-{[(1S,2S)-2-(5-methoxypyridin-2-yl)cyclopropyl]methoxy}-2-methyl-5-[(E)-2-(pyridin-3-yl)ethenyl]pyrimidine]
60.8 | COc1ccc([C@H]2C[C@@H]2COc2nc(C)ncc2CN2CCC(F)(F)C2)nc1 [SS1, 5-[(3,3-difluoropyrrolidin-1-yl)methyl]-4-{[(1S,2S)-2-(5-methoxypyridin-2-yl)cyclopropyl]methoxy}-2-methylpyrimidine]
2.5 | COc1ccc([C@H]2C[C@@H]2COc2nc3cccnc3cc2C2CCCN(C(C)=O)C2)nc1 (stereo partly drawn) [RR4, 1-[3-(2-{[(1S,2S)-2-(5-methoxypyridin-2-yl)cyclopropyl]methoxy}-1,5-naphthyridin-3-yl)piperidin-1-yl]ethanone]
